Source: patent publication US7462605B2, “Phosphoramidate compounds and methods of use” (Celmed Oncology (USA), Inc., priority 2002, dated 2008)
Like-named read-outs stand apart in the source and are kept apart here.

Key:
[1] = system: H630R10 5FU-resistant colon tumor cells; test: alamarBlue growth inhibition, H630R10; type: cell-based, human; conditions: Homo sapiens; Tumor Cells: H630R10 (Colon); alamarBlue, 120 hours; read-out: IC50
Procedure: (§1) Growth Inhibition Studies. Cells growing exponentially were transferred to 384-well flat bottom tissue culture plates. All cell types were plated at a density of 500 cells per well in 25 μL of complete medium (RPMI 1640+10% fetal bovine serum+antibiotics/antimycotics). After 24 hours (day 0), 25 μL of complete medium containing the experimental compounds over the dose range of 10^ñ3 to 10^ñ10 M were added in triplicate. […] 5 μL of the redox indicator, alamarBlue, was added to each well (10% v/v). After 4 hours incubation at 37° C., fluorescence was monitored at 535 nm excitation and 595 nm emission.
(§2) Concentration vs. relative fluorescence units (RFU) were plotted, and sigmoid curves were fit using the Hill equation.

[2] = system: NPRSC (Prostate) normal cells; test: alamarBlue growth inhibition, NPRSC; type: cell-based, human; conditions: Homo sapiens, 120 hours
Procedure: as §1, §2

NHDF (Skin) normal cells = test: alamarBlue growth inhibition, NHDF; type: cell-based, human; conditions: Homo sapiens, 120 hours
Procedure: as §1, §2

[3] = system: COLO320 (Colon) tumor cells; test: alamarBlue growth inhibition, COLO320; type: cell-based, human; conditions: Homo sapiens, COLO 320, 120 hours
Procedure: as §1, §2

[4] = system: CCD18co normal colon epithelial cells; test: alamarBlue growth inhibition, CCD18co; type: cell-based, human; conditions: Homo sapiens, CCD-18Co; Normal Cells: CCD1800 (Colon); alamarBlue, 120 hours
Procedure: as §1, §2

HCTC (Colon) tumor cells = test: alamarBlue growth inhibition, HCTC; type: cell-based, human; conditions: Homo sapiens, 120 hours
Procedure: as §1, §2

[5] = system: SW527 (Breast) tumor cells; test: alamarBlue growth inhibition, SW527; type: cell-based, human; conditions: Homo sapiens, 120 hours
Procedure: as §1, §2

[6] = H630-10 5-FU resistant colon carcinoma xenografts in athymic mice; conditions: female, CD-1 (nu/nu) athymic, mouse, in vivo, ip
Procedure: Tumor measurements began on the first day of treatment (Day 1).
Following cell expansion ex-vivo H630-10 were injected subcutaneously (S.Q.) at 1.5×10^7 cells/tumor in the mid-back region of 4-6 week old, female, CD-1 (nu/nu), athymic mice (Charles River Laboratories, Wilmington, Mass.). Tumor volumes, calculated as the product of length, width, and depth, were monitored twice weekly by serial micrometer measurements by a single observer. Six animals were randomly assigned to each treatment group and statistical tests were performed (single-factor ANOVA) to assure uniformity in starting tumor volumes between treatment and control groups at the beginning of the experiment. […] To assure accurate dosing, drug doses were individualized based upon animal weights determined immediately prior to each injection. […] Differences in day 25 xenograft volumes between groups were analyzed by single-factor ANOVA of the log transformed tumor volume data.

[7] = system: normal and tumor cell types; test: cells; conditions: Homo sapiens
Procedure: Growth Inhibition Studies. Cells growing exponentially were transferred to 384-well flat bottom tissue culture plates. All cell types were plated at a density of 500 cells per well in 25 μL of complete medium (RPMI 1640+10% fetal bovine serum+antibiotics/antimycotics). After 24 hours (day 0), 25 μL of complete medium containing the experimental compounds over the dose range of 10^ñ3 to 10^ñ10 M were added in triplicate. Drug exposure time was 120 hours (day 5), after which growth inhibition was assayed. 5 μL of the redox indicator, alamarBlue, was added to each well (10% v/v). After 4 hours incubation at 37° C., fluorescence was monitored at 535 nm excitation and 595 nm emission.
as §2
Assays were carried out as described in Methods, above. Therapeutic index is calculated as the ratio of the average IC50 for normal cells to the average IC50 for tumor cells. All assays were done at least three times.

SKLU1 (Lung) tumor cells = test: alamarBlue growth inhibition, SKLU1; type: cell-based, human; conditions: Homo sapiens, SK-LU-1, 120 hours
Procedure: as §1, §2

[8] = system: MCIxc (Brain) tumor cells; test: alamarBlue growth inhibition, MCIxc; type: cell-based, human; conditions: Homo sapiens, MC-IXC, 120 hours
Procedure: as §1, §2

[9] = system: NCI H520 (Lung) tumor cells; test: alamarBlue growth inhibition, NCI H520; type: cell-based, human; conditions: Homo sapiens, 120 hours
Procedure: as §1, §2

SOAS2 (Bone) tumor cells = test: alamarBlue growth inhibition, SOAS2; type: cell-based, human; conditions: Homo sapiens, 120 hours
Procedure: as §1, §2

[10] = system: PC3 (Prostate) tumor cells; test: alamarBlue growth inhibition, PC3; type: cell-based, human; conditions: Homo sapiens, 120 hours
Procedure: as §1, §2

[11] = system: NHEPF (Liver) normal cells; test: alamarBlue growth inhibition, NHEPF; type: cell-based, human; conditions: Homo sapiens, 120 hours
Procedure: as §1, §2

[12] = system: MDAMB468 (Breast) tumor cells; test: alamarBlue growth inhibition, MDAMB468; type: cell-based, human; conditions: Homo sapiens, MDA-MB-468, 120 hours
Procedure: as §1, §2

[13] = system: SW620 (Colon) tumor cells; test: alamarBlue growth inhibition, SW620; type: cell-based, human; conditions: Homo sapiens, SW-620, 120 hours
Procedure: as §1, §2

[14] = system: COLO205 (Colon) tumor cells; test: alamarBlue growth inhibition, COLO205; type: cell-based, human; conditions: Homo sapiens, COLO 205, 120 hours
Procedure: as §1, §2

W138 (Lung) normal cells = test: alamarBlue growth inhibition, W138; type: cell-based, human; conditions: Homo sapiens, 120 hours
Procedure: as §1, §2

[15] = system: PANC1 (Pancreas) tumor cells; test: alamarBlue growth inhibition, PANC1; type: cell-based, human; conditions: Homo sapiens, PANC-1, 120 hours
Procedure: as §1, §2

[16] = system: SKOV3 (Ovary) tumor cells; test: alamarBlue growth inhibition, SKOV3; type: cell-based, human; conditions: Homo sapiens, SK-OV-3, 120 hours
Procedure: as §1, §2

[17] = system: HT1080 (Colon) tumor cells; test: alamarBlue growth inhibition, HT1080; type: cell-based, human; conditions: Homo sapiens, HT-1080, 120 hours
Procedure: as §1, §2

NHLF (Lung) normal cells = test: alamarBlue growth inhibition, NHLF; type: cell-based, human; conditions: Homo sapiens, 120 hours
Procedure: as §1, §2

[18] = system: SKCO1 (Colon) tumor cells; test: alamarBlue growth inhibition, SKCO1; type: cell-based, human; conditions: Homo sapiens, SK-CO-1, 120 hours
Procedure: as §1, §2

A431 (Skin) tumor cells = test: alamarBlue growth inhibition, A431; type: cell-based, human; conditions: Homo sapiens, A-431, 120 hours
Procedure: as §1, §2

NHA (Brain) normal cells = test: alamarBlue growth inhibition, NHA; type: cell-based, human; conditions: Homo sapiens, 120 hours
Procedure: as §1, §2

[19] = system: SKHEP1 (Liver) tumor cells; test: alamarBlue growth inhibition, SKHEP1; type: cell-based, human; conditions: Homo sapiens, SK-HEP1, 120 hours
Procedure: as §1, §2

[20] = system: DET551 (Skin) normal cells; test: alamarBlue growth inhibition, DET551; type: cell-based, human; conditions: Homo sapiens, 120 hours
Procedure: as §1, §2

H527 (Skin) normal cells = test: alamarBlue growth inhibition, H527; type: cell-based, human; conditions: Homo sapiens, 120 hours
Procedure: as §1, §2

[21] = system: MDAMB361 (Breast) tumor cells; test: alamarBlue growth inhibition, MDAMB361; type: cell-based, human; conditions: Homo sapiens, MDA-MB-361, 120 hours
Procedure: as §1, §2

[22] = system: NHOST (Bone) normal cells; test: alamarBlue growth inhibition, NHOST; type: cell-based, human; conditions: Homo sapiens, 120 hours
Procedure: as §1, §2

[23] = system: HEPG2 (Liver) tumor cells; test: alamarBlue growth inhibition, HEPG2; type: cell-based, human; conditions: Homo sapiens, 120 hours
Procedure: as §1, §2

MRC9 (Lung) normal cells = test: alamarBlue growth inhibition, MRC9; type: cell-based, human; conditions: Homo sapiens, 120 hours
Procedure: as §1, §2

rHuTS [24] = target: T1, rHuTS (Homo sapiens, UniProt P04818); test: Inhibition of rHuTS reactions by Tomudex and 5-FdUMP (initial rates); type: biochemical; conditions: 30° C., fluorescence 340/595 nm
T1 construct: His tag (from pET-28a(+)) (N); made in house; host or cells: E. coli BL21 (DE3)/pET-28a(+)
T1 sequence (P04818 whole entry): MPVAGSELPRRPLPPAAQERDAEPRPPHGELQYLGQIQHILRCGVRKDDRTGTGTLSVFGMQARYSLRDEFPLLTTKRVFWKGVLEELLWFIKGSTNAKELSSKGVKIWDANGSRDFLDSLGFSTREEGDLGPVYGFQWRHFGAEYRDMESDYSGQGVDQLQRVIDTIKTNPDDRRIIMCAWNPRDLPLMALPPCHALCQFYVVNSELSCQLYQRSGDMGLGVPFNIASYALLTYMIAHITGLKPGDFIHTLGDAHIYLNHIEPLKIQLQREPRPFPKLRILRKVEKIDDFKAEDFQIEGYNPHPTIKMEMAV
Procedure: (§3) Enzyme Assays and Kinetic Measurements. Thymidylate synthase assays were done in 96 well Costar UV transparent plates in a reaction volume of 200 μL, consisting of 40 mM Tris pH 7.5, 25 mM MgCl2, 1 mM EDTA, 25 mM-mercaptoethanol, 125M dUMP, and 65 μM N5, N10-methylene tetrahydrofolate indicated. Tetrahydrofolate stock solutions were prepared by dissolving tetrahydrofolic acid (Sigma) directly into 0.2M Tris pH 7.5, 0.5 M-mercaptoethanol; stock solutions were stored at −80° C. N5, N10-methylene tetrahydrofolate was prepared by adding 12 μl of 3.8% formaldehyde to 1 ml of a 0.65 mM solution of tetrahydrofolate and incubating for 5 minutes at 37° C. N5, N10-methylene tetrahydrofolate was kept on ice and used within 2 hours of preparation.
Conversion of BVdUMP to fluorescent product(s) by thymidylate synthase was measured in 200 μl thymidylate synthase reactions containing 125M BVdUMP in 96 well Dynex Microfluor Black “U” bottom microtiter plates using an excitation wavelength of 340 nm and emission wavelength of 595 nm. Fluorescence was measured with a Tecan Spectrafluor Plus fluorimeter.

Lactobacillus casei TS = target: T2, Lactobacillus casei TS (Lacticaseibacillus casei, UniProt P00469); conditions: cited from earlier work
T2 sequence (P00469 1-316): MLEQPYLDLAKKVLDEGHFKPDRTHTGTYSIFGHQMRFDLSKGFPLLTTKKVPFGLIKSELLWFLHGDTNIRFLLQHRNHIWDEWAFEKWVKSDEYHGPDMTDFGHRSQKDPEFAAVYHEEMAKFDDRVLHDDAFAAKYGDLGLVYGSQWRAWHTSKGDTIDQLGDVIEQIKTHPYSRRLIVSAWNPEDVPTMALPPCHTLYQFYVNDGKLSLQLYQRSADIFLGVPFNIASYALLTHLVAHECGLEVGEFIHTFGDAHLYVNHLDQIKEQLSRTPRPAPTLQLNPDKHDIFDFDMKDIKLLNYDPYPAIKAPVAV

rHuTS [25] = target: T1, rHuTS; test: Preincubation of rHuTS with BVdUMP (enzyme inactivation); type: biochemical; conditions: 20 hour incubation with 125 μM BVdUMP, then dUMP as substrate
Procedure: Human thymidylate synthase was pre-incubated in reaction mixtures with and without 125 μM BVdUMP. After 20 hours, BVdUMP was added to a concentration of 125 μM, dUMP to a final concentration of 125 μM, and N5, N10-methylene tetrahydrofolate was added to 70 μM. Thymidylate synthase activity was determined by measuring the increase in A340. Solid circles (preincubated reaction), Open circles (no preincubation).
To help further clarify this situation, an extended incubation of rHuTS with BVdUMP was done in order to measure any inactivation that may occur over a period of time longer than that in which the kinetics were performed (FIG. 2).

[26] = target: T3, rHuTS (recombinant human thymidylate synthase) (Homo sapiens, UniProt P04818); test: Enzyme kinetics of rHuTS with dUMP and BVdUMP; type: biochemical
T3 construct: His tag (from pET-28a(+)) (N); made in house; host or cells: E. coli BL21 (DE3)/pET-28a(+)
T3 sequence (P04818 whole entry): as the sequence (P04818 whole entry) above
Procedure: Enzyme Preparation. Cloned human thymidylate synthase plasmid pBCHTS was subcloned into E. coli. BL21 (DE3)/pET-28a(+) (Novagen) using the Ndel ñSacI insertion site, in order to add an amino terminal His tag. Enzyme was expressed in E. coli. by induction with IPTG, and purified by affinity chromatography on a Ni^2+ His Bind metal chelation resin (Novagen). The column Ni^2+ His Bind metal chelation column was washed with 20 mM Tris pH 7.9, 5 mM imidazole, 0.5M NaCl; thymidylate synthase activity was eluted with 20 mM Tris pH 7.9, 60 mM imidazole, 0.5M NaCl.
as §3
Enzyme kinetic constants (Km and Vmax) were determined for the human thymidylate synthase substrates dUMP and BVdUMP using the enzyme assay conditions described above. The initial rates of the enzyme reactions was determined by measuring the increase in A340 for the reaction with dUMP, and decrease in A294 for the reaction with BVdUMP. The catalytic efficiency of the enzyme (Kcat/Km) was calculated from the kinetic constants Km and Vmax.

O=c1[nH]cc(F)c(=O)[nH]1 [5FU, 5-fluorouracil]
IC50 [1]: 41600 nM | IC50 [2]: 1700 nM | IC50 (NHDF (Skin) normal cells): 800 nM | IC50 [3]: 1500 nM | IC50 [4]: 2000 nM | IC50 (HCTC (Colon) tumor cells): 2800 nM | IC50 [5]: 4300 nM | MTD at 5 days [6]: 15 mg/kg | IC50 ([7]; read-out: IC50 (μM), Average, average of the 11 normal cell types): 1.6 µM | IC50 ([7]; read-out: IC50 (μM), Average, average of the 21 tumor cell lines): 5.3 µM | IC50 (SKLU1 (Lung) tumor cells): 7900 nM | IC50 [8]: 1200 nM | IC50 [9]: 600 nM | IC50 (SOAS2 (Bone) tumor cells): 1400 nM | IC50 [10]: 900 nM | IC50 [11]: 1700 nM | IC50 [12]: 4400 nM | IC50 [13]: 4600 nM | IC50 [14]: 1300 nM | IC50 (W138 (Lung) normal cells): 1000 nM | IC50 [15]: 1900 nM | IC50 [16]: 3000 nM | IC50 [17]: 800 nM | IC50 (NHLF (Lung) normal cells): 900 nM | IC50 [18]: 1400 nM | IC50 (A431 (Skin) tumor cells): 200 nM | IC50 (NHA (Brain) normal cells): 900 nM | IC50 [19]: 1700 nM | IC50 [20]: 800 nM | IC50 (H527 (Skin) normal cells): 1600 nM | IC50 [21]: 5000 nM | IC50 [22]: 4700 nM | IC50 [23]: 22800 nM | IC50 (MRC9 (Lung) normal cells): 1100 nM

O=c1[nH]c(=O)n([C@H]2C[C@H](O)[C@@H](COP(=O)(O)O)O2)cc1/C=C/Br [BVdUMP, Bromovinyl, 2′-Deoxyuridine Monophosphate]
initial rate of rHuTS reaction, No Inhibitor (rHuTS [24]; BVdUMP + THF): 109 ± 16 RFU/min | initial rate of rHuTS reaction, No Inhibitor (rHuTS [24]; BVdUMP − THF): 75 ± 11 RFU/min | Kcat (Lactobacillus casei TS): 0.018 s⁻¹ | Ki (Lactobacillus casei TS; dUMP reaction, read-out: Kl (of BVdUMP)): 600 nM | Km (Lactobacillus casei TS; substrate): 3.3 µM | inactivation of rHuTS (rHuTS [25]): little or no enzymatic inactivation | Kcat ([26]; rHuTS): 0.0067 s⁻¹ | Ki ([26]; rHuTS, dUMP reaction, read-out: Kl (of BVdUMP)): 4500 nM | Km ([26]; rHuTS, substrate): 16 µM | improved efficiency of conversion of BVdUMP, human enzyme vs L. casei enzyme ([26]; relative to endogenous substrate dUMP): > 6.4 fold
